The values that follow come from patent US6743917B2, “Camptothecin analogs and methods of preparation thereof” (University of Pittsburgh, priority 1993, dated 2004).

Like-named read-outs stand apart in the source and are kept apart here.

Data set [1] can be described thus: Equilibrium binding to DMPC small unilamellar vesicles (fluorescence anisotropy titration). To be noted: PBS buffer at PH 7.4 and 37° C. In general terms: Polarisation of emitted light reports the rotation of a fluorescent probe.
A short description of data set [2]: Equilibrium binding to DMPG small unilamellar vesicles (fluorescence anisotropy titration). To be noted: PBS buffer at PH 7.4 and 37° C.
The test system of data set [3] is HL-60 (human promyelocytic leukemic) cells. Put plainly: Cytotoxicity assay, HL-60 cells (XTT-microculture tetrazolium assay). Particulars: read-out: Inhibition of cancer cell growth IC50, HL-60. The class given is cell-based. The protocol: The camptothecin derivatives were evaluated for their cytotoxic effects on the growth of HL-60 (human promyelocytic leukemic), 833K (human teratocarcinoma) and DC-3F (hamster lung) cells in vitro. The cells were cultured in an initial density of […]. They were maintained in a 5% CO2 humidified atmosphere at 37° C. in RPMI-1640 media (GIBCO-BRL Grand Island, N.Y.) containing penicillin 100 μ/ml)/streptomycin (100 ^μg/ml) (GIBCO-BRL) and 10% heat inactivated fetal bovine serum. The assay was performed in duplicate in 96-well microplates. The cytotoxicity of the compounds toward HL-60 cells following 72 hr incubation was determined by XTT-microculture tetrazolium assay. Scudiero, D. A., et al., Cancer Res., 48, 4827 (1988), the disclosure of which is incorporated herein by reference. 2′, 3′-bis(-methoxy-4-nitro-5-sulfheny)-5-[(phenylamino)carbonyl]-2H-tetrazolium hydroxide (XTT) was prepared at 1 mg/ml in prewarmed (37° C.) medium without serum. Phenazine methosulfate (PMS) and fresh XTT were mixed together to obtain 0.075 mM PMS-XTT solution (25 ^μl of the stock 5 mM PMS was added per 5 ml of 1 mg/ml XTT). Fifty ^μl of this mixture was added to each well of the cell culture at the end of 72 hr incubation. After incubation at 37° C. for 4 hr., absorbance at 450 nm and 630 nm was measured with a microplate reader (EL340, Bio-Tek Instruments, Inc., Winooski, Vt.).

Data set [4] concerns 833K (human teratocarcinoma) cells. Put plainly: Cytotoxicity assay, 833K cells (sulforhodamine B protein content). The class given is cell-based. To be noted: read-out: Inhibition of cancer cell growth IC50, 833K. The protocol: (§1) Cultures were fixed with trichloroacetic acid and then stained for 30 minutes with 0.4% sulforhodamine B dissolved in 1% acetic acid. Unbound dye was removed by acetic acid washes, and the protein-bound dye was extracted with an unbuffered Tris base [tris(hydroxy-methyl)aminomethan] for determination of absorbance at 570 nm in a 96-well microplate reader. The experiments were carried out in duplicate using five to six concentrations of the drugs tested. Data were analyzed via computer software.

Data set [5] deals with DC-3F (hamster lung) cells. Put plainly: Cytotoxicity assay, DC-3F cells (sulforhodamine B protein content). The class given is cell-based. Particulars: read-out: Inhibition of cancer cell growth IC50, DC-3F. As to the method: as §1
Setting [6] is: HL-60 cells, 72 hr incubation, XTT.
Setting [7] is: Homo sapiens, HL-60 cells, 72 hr incubation, XTT.
The mark [8] stands for this setting: Homo sapiens, 833K cells, sulforhodamine B.
[9] abbreviates: Mesocricetus auratus, DC3F, DC-3F cells, sulforhodamine B.

As to `CCCCc1c2c(nc3ccc(O)cc13)-c1cc3c(c(=O)n1C2)COC(=O)C3(O)CC` (stereo not drawn) [7-butyl-10-hydroxycamptothecin], in data set [1], the “KDMPC overall association constant” value is 2100 M⁻¹. In data set [2], the “KDMPG overall association constant” value turned out to be 1270 M⁻¹.

`CCC1(O)C(=O)OCc2c1cc1n(c2=O)Cc2c-1nc1ccc(O)cc1c2C` (stereo not drawn) [7-methyl-10-hydroxycamptothecin]: the “KDMPC overall association constant” value in data set [1] came to 220 M⁻¹. Also, the “KDMPG overall association constant” value in data set [2] stood at 90 M⁻¹.

For the compound “(20S)-11,12-difluoro-7-trimethylsilylcamptothecin and (20S)-9,10-difluoro-7-trimethylsilylcamptothecin [Example 11]”, the IC50 in data set [3] (setting [6]) came out at 1.01 nM; in data set [4] (833K cells, sulforhodamine B), 2.1 nM; in data set [5] (DC-3F cells, sulforhodamine B), 2.5 nM.

Consider `CC[C@@]1(O)C(=O)OCc2c1cc1n(c2=O)Cc2c-1nc1ccccc1c2[Si](C)(C)CCCC#N` [Example 15, (20S)-7-(3-cyanopropyldimethylsilyl)camptothecin], for which the half-maximal inhibitory concentration (IC50) in data set [3] (setting [7]) amounted to 0.91 nM; in data set [4] (setting [8]) it was 2.7 nM; in data set [5] (setting [9]), 2.7 nM.

`CCc1c2c(nc3ccccc13)-c1cc3c(c(=O)n1C2)COC(=O)[C@]3(O)CC` [7-ethyl-20(S)-camptothecin]: the “KDMPC overall association constant” value in data set [1] came to 250 M⁻¹. Besides, the “KDMPG overall association constant” value in data set [2] amounted to 300 M⁻¹.

For the compound `CC[C@@]1(O)C(=O)OCc2c1cc1n(c2=O)Cc2c-1nc1ccccc1c2[Si](C(C)C)(C(C)C)C(C)C` [Example 12, 20S-7-triisopropylsilylcamptothecin], the IC50 in data set [3] (setting [7]) was 1510 nM; in data set [4] (setting [8]), 10700 nM; in data set [5] (setting [9]), 1040 nM.

In the case of `CCCc1c2c(nc3ccc(OC)cc13)-c1cc3c(c(=O)n1C2)COC(=O)C3(O)CC` (stereo not drawn) [7-propyl-10-methoxycamptothecin], the “KDMPC overall association constant” value in data set [1] came out at 440 M⁻¹. Also, the “KDMPG overall association constant” value in data set [2] worked out at 570 M⁻¹.

For the compound `CC[C@@]1(O)C(=O)OCc2c1cc1n(c2=O)Cc2c-1nc1ccccc1c2C` [7-methyl-20(S)-camptothecin], the “KDMPC overall association constant” value in data set [1] was found to be 150 M⁻¹. In addition, the “KDMPG overall association constant” value in data set [2] is 180 M⁻¹.

As for `CCc1c2c(nc3ccc(OC)cc13)-c1cc3c(c(=O)n1C2)COC(=O)C3(O)CC` (stereo not drawn) [7-ethyl-10-methoxycamptothecin], the “KDMPC overall association constant” value in data set [1] amounted to 340 M⁻¹. Further, in data set [2], the “KDMPG overall association constant” value is 330 M⁻¹.

On to `CCC1(O)C(=O)OCc2c1cc1n(c2=O)Cc2c-1nc1ccc(O)cc1c2[Si](C)(C)C` (stereo in doubt) [Example 5, (20S)-10-hydroxy-7-trimethylsilylcamptothecin], for which the results for the IC50 in data set [3] (setting [7]), in data set [4] (setting [8]) and in data set [5] (setting [9]) were 2.6 nM, 7 nM and 6.9 nM, respectively.

Turning to `CC[C@@]1(O)C(=O)OCc2c1cc1n(c2=O)Cc2c-1nc1ccccc1c2[Si](CC)(CC)CC` [Example 13, (20S)-7-Triethylsilylcamptothecin], the IC50 in data set [3] (setting [7]) was 31.9 nM; in data set [4] (setting [8]) it was 122 nM; in data set [5] (setting [9]) it was 57.1 nM.

`CCC1(O)C(=O)OCc2c1cc1n(c2=O)Cc2c-1nc1ccccc1c2[Si](c1ccccc1)(c1ccccc1)C(C)(C)C` (stereo in doubt) [Example 3, (20S)-7-tert-butyldiphenylsilylcamptothecin]: the IC50 in data set [3] (setting [7]) turned out to be 339 nM; in data set [4] (setting [8]) it was 243 nM; in data set [5] (setting [9]) it was 663 nM.

As to `CCC1(O)C(=O)OCc2c1cc1n(c2=O)Cc2c-1nc1ccc(OC(=O)N3CCC(N4CCCCC4)CC3)cc1c2[Si](C)(C)C` (stereo in doubt) [Example 6, (20S) 7-trimethylsilyl-irinotecan], the IC50 in data set [3] (Homo sapiens, HL-60, 72 h) is 66 nM; in data set [4] (Homo sapiens, 833K), 214 nM; in data set [5] (Mesocricetus auratus, DC3F), 256 nM.

For `CCC1(O)C(=O)OCc2c1cc1n(c2=O)Cc2c-1nc1cc(N)ccc1c2[Si](C)(C)C` (stereo in doubt) [Example 9, (20S)-11-amino-7-trimethylsilylcamptothecin], the figures for the IC50 in data set [3] (setting [7]), in data set [4] (setting [8]) and in data set [5] (setting [9]) were 2.6 nM, 7.4 nM and 6.4 nM, respectively.

As to `CCC1(O)C(=O)OCc2c1cc1n(c2=O)Cc2c-1nc1ccc(OC)cc1c2C` (stereo not drawn) [7-methyl-10-methoxycamptothecin], the “KDMPC overall association constant” value in data set [1] was determined as 220 M⁻¹. The “KDMPG overall association constant” value in data set [2] amounted to 200 M⁻¹.

Consider `CC[C@@]1(O)C(=O)OCc2c1cc1n(c2=O)Cc2c-1nc1ccccc1c2[Si](C)(C)CCCCl` [Example 16, (20S)-7-(3-halopropyldimethylsilyl) camptothecin], for which the values for the IC50 in data set [3] (setting [7]), in data set [4] (setting [8]) and in data set [5] (setting [9]) were 2.1 nM, 5.4 nM and 2.3 nM, respectively.

`CC[C@@]1(O)C(=O)OCc2c1cc1n(c2=O)Cc2c-1nc1ccc(OC(C)=O)cc1c2[Si](C)(C)C(C)(C)C` [Example 17, (20S)10-acetoxy-7-tert-butyldimethylsilylcamptothecin]: the figures for the IC50 in data set [3] (setting [7]) and in data set [5] (setting [9]) were 1.86 nM and 3.57 nM, respectively.

As for `CCC1(O)C(=O)OCc2c1cc1n(c2=O)Cc2c-1nc1cc(F)c(N)cc1c2[Si](C)(C)C` (stereo in doubt) [Example 10, (20S)-11-fluoro-10-amino-7-trimethylsilylcamptothecin], the IC50 in data set [3] (setting [7]) came to 0.07 nM; in data set [4] (setting [8]), 0.14 nM; in data set [5] (setting [9]), 0.29 nM.

On to `CCC1(O)C(=O)OCc2c1cc1n(c2=O)Cc2c-1nc1ccc(OC(C)=O)cc1c2[Si](C)(C)C` (stereo in doubt) [Example 4, (20S)-10-acetoxy-7-trimethylsilylcamptothecin], for which the IC50 in data set [3] (setting [7]) amounted to 2.7 nM; in data set [5] (setting [9]) it was 6.7 nM.

On to `CCCc1c2c(nc3ccc(O)cc13)-c1cc3c(c(=O)n1C2)COC(=O)C3(O)CC` (stereo not drawn) [7-propyl-10-hydroxycamptothecin], for which the “KDMPC overall association constant” value in data set [1] was found to be 550 M⁻¹. The “KDMPG overall association constant” value in data set [2] amounted to 250 M⁻¹.

As for `CCCc1c2c(nc3ccccc13)-c1cc3c(c(=O)n1C2)COC(=O)[C@]3(O)CC` [7-propyl-20(S)-camptothecin], in data set [1], the “KDMPC overall association constant” value was found to be 540 M⁻¹. The “KDMPG overall association constant” value in data set [2] stood at 600 M⁻¹.

For `CC[C@@]1(O)C(=O)OCc2c1cc1n(c2=O)Cc2c-1nc1ccc(OC(C)=O)cc1c2[Si](C)(C)C(C)(C)C` [Example 18, (20S)10-Acetoxy-7-tert-butyldimethylsilylcamptothecin], the IC50 in data set [3] (setting [6]) is 2.6 nM; in data set [5] (DC-3F cells, sulforhodamine B), 5.2 nM.

In the case of `CC[C@@]1(O)C(=O)OCc2c1cc1n(c2=O)Cc2c-1nc1ccccc1c2[Si](C)(C)CC1CCC2CC1C2(C)C` (stereo partly drawn) [Example 14, (20S)-7-(dimethyl-(1′S,2′S,5′S) 7,7 dimethylnorpinylsilyl)camptothecin], the IC50 in data set [3] (setting [7]) was determined as 66.9 nM; in data set [4] (setting [8]), 197 nM; in data set [5] (setting [9]), 64.1 nM.

In general, IC50 refers to the concentration that gives 50% inhibition.
